Where two headings read alike, the source gives them in different places.
Legend:
Format in all cases: cell-based
[1] = system: B16F10 (malignant melanoma); assay: Antiproliferative activity (CCK-8 cell viability), B16F10; settings: Mus musculus, 72 h; for inhibition at 3.3 µM: B16-F10, Compound concentration: 3.3 μM; for inhibition at 10 µM: B16-F10, Compound concentration: 10 μM; for inhibition at 30 µM: B16-F10, Compound concentration: 30 μM
In short: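 Cell growth inhibition was measured in B16F10 malignant melanoma cells with a Cell Counting Kit-8 viability assay. Cells were maintained in DMEM plus 10% fetal bovine serum, seeded at 2,000-5,000 cells/well in 96-well plates, and treated for 72 h at 37° C. Viability was expressed relative to DMSO-treated vehicle control wells.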

[2] = system: HeLa (cervical cancer); assay: Antiproliferative activity (CCK-8 cell viability), HeLa; settings: Homo sapiens, 72 h; for inhibition at 3.3 µM: Compound concentration: 3.3 μM; for inhibition at 10 µM: Compound concentration: 10 μM; for inhibition at 30 µM: Compound concentration: 30 μM
In short: (§1)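 Growth inhibition graded in bands from percent viability against DMSO vehicle, read as CCK-8 absorbance at 450 nm. Compound tested at 3.3, 10 or 30 μM for 72 h, 37 °C; media contained 10% FBS: DMEM for HepG2/SW480, MEM for HeLa, F-12K for A549.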

[3] = system: SW480 (colon cancer); assay: Antiproliferative activity (CCK-8 cell viability), SW480; settings: Homo sapiens, 72 h, read-out: Antiproliferative activity in cancerous cells, SW480 (inhibition of cell growth); for inhibition at 3.3 µM: Compound concentration: 3.3 μM; for inhibition at 10 µM: Compound concentration: 10 μM
In short: as §1

[4] = system: A431 (epidermoid carcinoma); assay: Antiproliferative activity (CCK-8 cell viability), A431; settings: Homo sapiens, 72 h; for inhibition at 3.3 µM: A-431, Compound concentration: 3.3 μM; for inhibition at 10 µM: A-431, Compound concentration: 10 μM; for inhibition at 30 µM: A-431, Compound concentration: 30 μM
In short: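 This growth inhibition assay used A431 cells maintained in Dulbecco's modified Eagle's medium plus 10% fetal bovine serum. Cells were seeded in 96-well plates, treated with compound for 72 h at 37° C., and then given 10 μL CCK-8 solution. After a further 4 h, absorbance was read at 450 nm.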

[5] = system: A549 (lung adenocarcinoma); assay: Antiproliferative activity (CCK-8 cell viability), A549; settings: Homo sapiens, 72 h; for inhibition at 3.3 µM: Compound concentration: 3.3 μM; for inhibition at 10 µM: Compound concentration: 10 μM; for inhibition at 30 µM: Compound concentration: 30 μM
In short: as §1

[6] = system: HepG2 (liver cancer); assay: Antiproliferative activity (CCK-8 cell viability), HepG2; settings: Homo sapiens, 72 h; for inhibition at 3.3 µM: Compound concentration: 3.3 μM; for inhibition at 10 µM: Compound concentration: 10 μM; for inhibition at 30 µM: Compound concentration: 30 μM
In short: as §1

[7] = system: alpha-smooth muscle actin (α-SMA); assay: Inhibition of TGF-β induced expression of alpha-smooth muscle actin (α-SMA) in CFSC cells (western blot); settings: compound at 10 μM, TGF-β (10 ng/mL), 24 hours, band intensity vs TGF-β only
In short: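 CFSC hepatic stellate cells in serum-free DMEM treated 24 h at 37 °C with compound at 10 μM plus TGF-β (10 ng/mL). α-SMA measured by Western blot with β-actin, ECL detection, densitometry. Percent inhibition is decrease in band intensity versus TGF-β-only cells.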

[8] = system: MDA-MB-231 (breast cancer); assay: Antiproliferative activity (CCK-8 cell viability), MDA-MB-231; settings: Homo sapiens, 72 h, read-out: Antiproliferative activity in cancerous cells, MDA-MB-231 (inhibition of cell growth); for inhibition at 3.3 µM: Compound concentration: 3.3 μM; for inhibition at 10 µM: Compound concentration: 10 μM
In short: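 Growth inhibition of human MDA-MB-231 breast cancer cells was assessed with a Cell Counting Kit-8. Cells cultured in DMEM plus 10% FBS were seeded at 2,000-5,000 cells/well, treated after attachment, and kept 72 h at 37° C. CCK-8 solution (10 μL) was added for 4 h, and absorbance at 450 nm was compared with DMSO-treated controls.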

[9] = read-out: Antiproliferative activity in cancerous cells, B16F10 (inhibition of cell growth)
[10] = read-out: Antiproliferative activity in cancerous cells, HELA (inhibition of cell growth)
[11] = read-out: Antiproliferative activity in cancerous cells, A431 (inhibition of cell growth)
[12] = read-out: Antiproliferative activity in cancerous cells, A549 (inhibition of cell growth)
[13] = read-out: Antiproliferative activity in cancerous cells, HepG2 (inhibition of cell growth)
[14] = read-out: Antiproliferative activity in cancerous cells, A549

Row | SMILES | inhibition at 3.3 µM [1, 9] | inhibition at 10 µM [1, 9] | inhibition at 3.3 µM [2, 10] | inhibition at 10 µM [2, 10] | inhibition at 3.3 µM [3] | inhibition at 10 µM [3] | inhibition at 3.3 µM [4, 11] | inhibition at 10 µM [4, 11] | inhibition at 3.3 µM [5, 12] | inhibition at 10 µM [5, 12] | inhibition at 3.3 µM [6, 13] | inhibition at 10 µM [6, 13] | inhibition at 10 µM [7] | inhibition at 3.3 µM [8] | inhibition at 10 µM [8] | further results
1 | O=C(O)CC1=C(CC2CCCC2)/C(=C/c2ccc(Oc3ccc(F)cc3)cc2)c2ccc(F)cc21 [C7, (Z)-2-(2-(Cyclopentylmethyl)-5-fluoro-1-(4-(4-fluorophenoxy)benzylidene)-1H-inden-3-yl)acetic acid] | ≥ 50% | ≥ 50% | ≥ 50% | ≥ 50% | ≥ 50% | ≥ 50% | ≥ 50% | ≥ 50% | ≥ 50% | ≥ 50% | 30 to 50% | ≥ 50% | > 80% | ≥ 50% | ≥ 50% | –
2 | CC1=C(CC(=O)O)c2cccc(F)c2/C1=C\c1cccc(COc2ccccc2)c1 [B9, (Z)-2-(7-Fluoro-2-methyl-1-(3-(phenoxymethyl)benzylidene)-1H-inden-3-yl)-acetic acid] | < 30% | ≥ 50% | < 30% | 30 to 50% | < 30% | < 30% | < 30% | < 30% | 30 to 50% | 30 to 50% | < 30% | < 30% | 50 to 80% | 30 to 50% | 30 to 50% | inhibition at 30 µM [5, 14]: 30 to 50%
3 | CC1=C(CC(=O)O)c2ccc(F)cc2/C1=C\c1cccc(COc2ccccc2)c1 [B10, (Z)-2-(6-Fluoro-2-methyl-1-(3-(phenoxymethyl)benzylidene)-1H-inden-3-yl)-acetic acid] | < 30% | ≥ 50% | < 30% | < 30% | < 30% | < 30% | < 30% | ≥ 50% | < 30% | ≥ 50% | 30 to 50% | ≥ 50% | > 80% | 30 to 50% | ≥ 50% | –
4 | CCc1ccc2c(c1)C(CC(=O)O)=C(C)/C2=C/c1cccc(COc2ccccc2)c1 [B11, (Z)-2-(5-Ethyl-2-methyl-1-(3-(phenoxymethyl)benzylidene)-1H-inden-3-yl)acetic acid] | ≥ 50% | ≥ 50% | < 30% | ≥ 50% | ≥ 50% | ≥ 50% | ≥ 50% | ≥ 50% | 30 to 50% | ≥ 50% | ≥ 50% | ≥ 50% | > 80% | 30 to 50% | ≥ 50% | –
5 | CC1=C(Cc2noc(=O)[nH]2)c2cc(F)ccc2/C1=C\c1cccc(Oc2ccccc2)c1 [C32, (Z)-3-((5-Fluoro-2-methyl-1-(3-phenoxybenzylidene)-1H-inden-3-yl)methyl)-1,2,4-oxadiazol-5(4H)-one] | < 30% | 30 to 50% | < 30% | 30 to 50% | < 30% | < 30% | < 30% | < 30% | < 30% | < 30% | < 30% | < 30% | < 30% | ≥ 50% | ≥ 50% | –
6 | CCC1=C(CC(=O)O)c2cc(F)ccc2/C1=C\c1ccc(COc2ccccc2)cc1 [A2, (Z)-2-(2-Ethyl-5-fluoro-1-(4-(phenoxymethyl)benzylidene)-1H-inden-3-yl)acetic acid] | 30 to 50% | ≥ 50% | 30 to 50% | ≥ 50% | < 30% | < 30% | < 30% | 30 to 50% | 30 to 50% | ≥ 50% | 30 to 50% | ≥ 50% | > 80% | ≥ 50% | ≥ 50% | –
7 | CC1=C(CC(=O)NCCN2CCOCC2)c2cc(F)ccc2/C1=C\c1ccc(Oc2ccc(F)cc2)cc1 [C39, (Z)-2-(5-Fluoro-1-(4-(4-fluorophenoxy)benzylidene)-2-methyl-1H-inden-3-yl)-N-(2-morpholinoethyl)acetamide] | < 30% | < 30% | < 30% | < 30% | < 30% | < 30% | < 30% | < 30% | < 30% | 30 to 50% | < 30% | < 30% | 50 to 80% | < 30% | < 30% | inhibition at 30 µM ([1]; read-out: Antiproliferative activity in cancerous cells, B16F10): < 30%; inhibition at 30 µM ([2]; read-out: Antiproliferative activity in cancerous cells, HELA): < 30%; inhibition at 30 µM ([4]; read-out: Antiproliferative activity in cancerous cells, A431): < 30%; inhibition at 30 µM [5, 14]: 30 to 50%; inhibition at 30 µM ([6]; read-out: Antiproliferative activity in cancerous cells, HepG2): < 30%
8 | CC1=C(CC(=O)O)c2c(F)ccc(F)c2/C1=C/c1ccc(C(C)C)cc1 [E12, (E)-2-(4,7-Difluoro-1-(4-isopropylbenzylidene)-2-methyl-1H-inden-3-yl)acetic acid] | 30 to 50% | ≥ 50% | < 30% | 30 to 50% | < 30% | 30 to 50% | < 30% | 30 to 50% | < 30% | 30 to 50% | < 30% | < 30% | < 30% | ≥ 50% | ≥ 50% | inhibition at 30 µM [1, 9]: ≥ 50%; inhibition at 30 µM [2, 10]: ≥ 50%; inhibition at 30 µM ([3]; Compound concentration: 30 μM): ≥ 50%; inhibition at 30 µM [4, 11]: ≥ 50%; inhibition at 30 µM [5, 12]: ≥ 50%; inhibition at 30 µM [6, 13]: 30 to 50%; inhibition at 30 µM ([8]; Compound concentration: 30 μM): ≥ 50%

Reference: patent US20260184663A1, “INDENE COMPOUNDS, PHARMACEUTICAL COMPOSITIONS THEREOF, AND THEIR THERAPEUTIC APPLICATIONS” (NucMito Pharmaceuticals co. Ltd., priority 2022, published 2026)
